The values below come from US20250326799A1, “AGENTS INDUCING VASCULARISATION” (Coegin Pharma AB, priority 2022, published 2025).

Experiment [1] concerns Human umbilical cord endothelial cells (HUVECs). Put plainly: Gene expression by PCR in endothelial cells. The class given is cell-based. As to conditions: for expression of PECAM-1 (CD31): HUVECs. As to the method:
Human umbilical cord endothelial cells were first treated with a scramble non-coding siRNA (NC) or siRNA for NRP-1, subsequently treated with FOL26 in concentrations of 10 nM, 100 nM, and 1000 nM, and endothelial tube formation and the total master segemnts were measured using ImageJ. gene expression of PECAM-1 (CD31) analyzed.
Cells on 6-well plates were washed with cold DPBS (Gibco, USA) and homogenized in Trizol reagent (Invitrogen, CA, USA). Total RNA was extracted using PureLink RNA Mini Kit (Invitrogen, CA, USA), followed by nucleic acid quantification with NanoDrop 2000c (Thermo Fisher Scientific, USA). To determine mRNA expression of target genes, real-time qPCR was performed using by KAPA SYBR FAST One-Step qRT-PCR Master Mix Kit (KAPA Biosystems, USA) on LightCycler480 system (Roche, Mannheim, Germany). All primers were purchased from miScript Primer Assays (Qiagen, Valencia, CA) and GAPDH mRNA expression of each sample was used for normalization. Cells on 6-well plates were washed with cold DPBS and lysed with the mixture of lysis buffer and protease inhibitors on ice, then centrifuged at 15,000 g for 20 min at 4° C. Supernatant was performed to measure the protein concentration using BCA Protein Assay Kit (Thermo Fisher Scientific, USA). Protein sample was loaded onto SDS-PAGE gels and separated with electrophoresis, followed by transferred to PVDF membranes (Millipore, USA). Membranes were blocked with 5% nonfat milk. Primary antibodies (Abcam, UK) and secondary antibodies were performed to incubate with membranes at 4° C. overnight and at room temperature for 1 hour respectively. […]

For experiment [2], the system named is Human coronary artery smooth cells (HCASMCs). Briefly: Gene expression by PCR in arterial smooth muscle cells. It counts as cell-based. Here is the method:
Cells on 6-well plates were washed with cold DPBS (Gibco, USA) and homogenized in Trizol reagent (Invitrogen, CA, USA). Total RNA was extracted using PureLink RNA Mini Kit (Invitrogen, CA, USA), followed by nucleic acid quantification with NanoDrop 2000c (Thermo Fisher Scientific, USA). To determine mRNA expression of target genes, real-time qPCR was performed using by KAPA SYBR FAST One-Step qRT-PCR Master Mix Kit (KAPA Biosystems, USA) on LightCycler480 system (Roche, Mannheim, Germany). All primers were purchased from miScript Primer Assays (Qiagen, Valencia, CA) and GAPDH mRNA expression of each sample was used for normalization. Cells on 6-well plates were washed with cold DPBS and lysed with the mixture of lysis buffer and protease inhibitors on ice, then centrifuged at 15,000 g for 20 min at 4° C. Supernatant was performed to measure the protein concentration using BCA Protein Assay Kit (Thermo Fisher Scientific, USA). Protein sample was loaded onto SDS-PAGE gels and separated with electrophoresis, followed by transferred to PVDF membranes (Millipore, USA). Membranes were blocked with 5% nonfat milk. Primary antibodies (Abcam, UK) and secondary antibodies were performed to incubate with membranes at 4° C. overnight and at room temperature for 1 hour respectively.

Experiment [3] has as its system human umbilical vascular endothelial cells (HUVECs). Put plainly: ROS level (H2O2 measurement) after oxLDL, HUVECs. The class given is cell-based. As to conditions: HUVECs pre-incubated with peptide; 50 ug/ml oxLDL for 2 hours. Here is the method:
The impact of FOL-026 peptide on human umbilical vascular endothelial cells (HUVECs) proliferation (FIG. 18a) and apoptosis (FIG. 18c) induced with low-oxygen condition was determined by BrdU uptake (n=8-9 per group) and active caspase-3/-7 (n=7-10 per group) separately. The ROS level (FIG. 18b) activated by 50 ug/ml oxidized Low-density Lipoprotein (oxLDL) for 2 hours in cells pre-incubated with FOL-026 peptides was assessed using H2O2 measurement (n=4-8 per group). Representative pictures of endothelial migration into an in vitro scratch injury were shown (FIG. 19a) and the wound closure rate (FIG. 19b) in HUVECs stimulated with increasing concentration of FOL-026 peptide was quantified by image J software (n=8-9 per group). Scale bar=150 um. Data are presented as means±SEM and acquired from 3 to 4 independent replicate tests. *P<0.05, **P<0.01, ****P<0.0001 by one-way ANOVA and Dunnett's post-hoc test.

Experiment [4] in a line: Vessel density, CD31+ positive area. As to conditions: in vivo. Here is the method:
Quantified measurement of total length (FIG. 20b), total master segments length (FIG. 20c), total branching length (FIG. 20d) and total segments length (FIG. 20e) were performed to evaluate angiogenesis in vitro (n=7 per group for FIG. 29 b-e). The quantification of vessel density was assessed with CD31+ positive area (FIG. 21a, n=13 per group). Western blot analysis of phosphorylated AKT (pAKT-T308), AKT, phosphorylated ERK1/2 (p-ERK1/2) and ERK1/2 in endothelial cells stimulated with FOL-26 peptides for 48 hours (FIG. 21b). Quantification of phosphorylation intensities normalized to respective total expressions (FIG. 21c-d, n=3 per group).

Experiment [5] deals with human coronary smooth muscle cells (HCASMCs). Put plainly: H2O2 measurement after oxLDL, smooth muscle cells. It counts as cell-based. As to conditions: smooth muscle cells pre-incubated with peptide; 50 ug/ml oxLDL for 2 hours. Here is the method: The effect of FOL-026 peptide treatment on smooth muscle cell proliferation (FIG. 25a) and apoptosis (FIG. 25c) induced with low-oxygen condition was evaluated with the uptake of BrdU (n=10 per group) and active caspase-3/-7 (n=6-8 per group) separately. H2O2 measurement (FIG. 25b) of smooth muscle cells pre-incubated with FOL-26 peptides after 50 ug/ml oxidized Low-density Lipoprotein (oxLDL) stimulation for 2 hours (n=6-7 per group). Representative images of scratch wound assay in vitro are shown (FIG. 26a) and the ability of wound healing (FIG. 26b) in human coronary smooth muscle cells (HCASMCs) treated with FOL-026 peptides was measured by image J software (n=10 per group). Scale bar=150 um. Data are presented as means±SEM and acquired from 3 to 4 independent replicate tests. *P<0.05, **P<0.01, ***P<0.001, ****P<0.0001 by one-way ANOVA and Dunnett's post-hoc test.

In experiment [6] the test system is Human umbilical cord endothelial cells (HUVECs). Put plainly: Gene expression by PCR in endothelial cells. The class given is cell-based.

For VDTYDGGISVVYGLR [FOL-026], the “expression of PECAM-1 (CD31)” value in experiment [1] (10 nM, 100 nM, 1000 nM tested) is on record as “increased expression of PECAM-1”; in experiment [1] (100 nM and 1000 nM), “increased”. Also, the angiogenesis related genes entry in experiment [1] (endothelial cells) is “induces upregulation”. In addition, the c-MET gene expression entry in experiment [2] (10 nM and 1000 nM) was “reduced”. For the same sequence, the MMP2 gene expression entry was “induced” in experiment [2] (10, 100, and 1000 nM); “induced” in experiment [6] (200 nM and 1000 nM). For the same sequence, the NRP-1 gene expression entry in experiment [2] (10, 100, and 1000 nM) is “reduced”; in experiment [6] (100 nM and 1000 nM), “inducing”; in experiment [6] (lowest dose (10 nM)) it was “reducing”. Further, the VEGF-A gene expression entry in experiment [2] (10, 100, and 1000 nM) is recorded as “induced”; in experiment [6] (10 nM, 100 nM, 1000 nM tested), “no effect”. In addition, the IL-6 gene expression result in experiment [2] (100 and 1000 nM) was “induced”; in experiment [6] (10 nM, 100 nM, 1000 nM tested), “no effect”. Further, the MMP3 gene expression entry in experiment [2] (100 and 1000 nM) was “induced”; in experiment [6] (10 nM, 100 nM, 1000 nM tested), “no effect”. For the same sequence, the TNF-α gene expression entry in experiment [2] (100 and 1000 nM) is “induced”; in experiment [6] (10 nM and 100 nM), “reduced”. Besides, the “ROS levels induced by oxLDL (H2O2 measurement)” value in experiment [3] is given as “reduce the amount of ROS levels”. In experiment [4], the “vessel density (CD31+ positive area)” value was “increased vessel density”. Moreover, the “ROS formation (H2O2 measurement)” value in experiment [5] is given as “reduces ROS formation”. Besides, the VEGFR-2 gene expression result in experiment [6] (10 nM) is given as “reduced”; in experiment [6] (1000 nM), “induced”. Also, the c-Met gene expression result in experiment [6] (10 nM, 100 nM, 1000 nM tested) is given as “reducing”.

Regarding AEIDSIELSYGIK [FOL56], the “expression of PECAM-1 (CD31)” value in experiment [1] (10 nM, 100 nM, 1000 nM tested) was “increased expression of PECAM-1”.
